Reference: US6838416B2, “Herbicidal 5-benzyloxymethyl-1,2-isoxazoline derivatives” (Korea Research Institute of Chemical Technology, priority 2000, dated 2005)

Assays:
MOOVA (seed) = experiment: Assay for herbicidal activity, paddy pots: MOOVA; format: in vivo, Monochoria vaginalis PRESL; details: three weeks after application, 0 untreated control, 100 complete kill
Description: (§1) To evaluate herbicidal activity against the paddy weeds in the paddy rice (ORYSA: Oryza sativa L.), the herbicidal activity of the compounds of the invention was compared to that of the compound No.109 (compound A) disclosed in U.S. Pat. […] The paddy weeds tested were ECHOR (Echinochloa crus-galli var. oryzicola), SCPJU (Scirpus juncoides ROXB), MOOVA (Monochoria vaginalis […] (Cyperus serotinus ROTTB), and SAGPY (Sagittaria pygmaea MTQ). The vessels employed were plastic pots having an area of 140 cm^2 and filled with a sandy loam soil containing 1.2% organic matter (pH 6).

ECHOR (seed) = experiment: Assay for herbicidal activity, paddy pots: ECHOR; format: in vivo, Echinochloa crus-galli var. oryzicola; details: three weeks after application, 0 untreated control, 100 complete kill
Description: as §1

SCPJU (seed) = experiment: Assay for herbicidal activity, paddy pots: SCPJU; format: in vivo, Scirpus juncoides ROXB; details: three weeks after application, 0 untreated control, 100 complete kill
Description: as §1

ORYSA seed = experiment: Assay for herbicidal activity on the 2-leaf stage weeds and rice plants: rice seed; format: in vivo, Oryza sativa L.; details: applied two days after seeding pregerminated seeds, 0 untreated control, 100 complete kill
Procedure: (§2) The vessels employed were plastic pots having an area of 140 cm^2 and filled with a sandy loam soil containing 1.2% organic matter (pH 6). Pregerminated seed of rice (ORYSA: Oryza sativa L.) and seed of ECHOR (Echinochloa crus-galli var oryzicola) were seeded on the soil surface, respectively. The pots were then watered at the depth of 3 cm just after seeding.
(§3) Seven days after seeding, the pregerminated seeds of rice were seeded on the soil face whilst the early seeded rice in the same pots and barnyard grass (ECHOR) grew up to the 2-leaf stage. Two days after, a solution of the compound of Example 8 and Tween-20 as a non-ionic emulsifier in 50% acetone, was diluted with water to a concentration of 0.016, 0.063, 0.25, 1 and 4.0 kg/ha, respectively and applied evenly to the test pots.
(§4) Three weeks after starting from the beginning, the application of the herbicide, the herbicidal activity on paddy weeds and the phytotoxicity to the paddy rice plant were visually rated by a percentage grading wherein 0 indicates as an untreated control and 100 indicates complete kill. The results are shown in the following

SAGPY (tuber) = experiment: Assay for herbicidal activity, paddy pots: SAGPY; format: in vivo, Sagittaria pygmaea MTQ; details: three weeks after application, 0 untreated control, 100 complete kill
Description: as §1

ECHOR 2-leaf stage = experiment: Assay for herbicidal activity on the 2-leaf stage weeds and rice plants: ECHOR 2-leaf stage; format: in vivo, Echinochloa crus-galli var oryzicola; details: applied at 2-leaf stage, 0 untreated control, 100 complete kill
Procedure: as §2, §3, §4

CYPSE (tuber) = experiment: Assay for herbicidal activity, paddy pots: CYPSE; format: in vivo, Cyperus serotinus ROTTB; details: three weeks after application, 0 untreated control, 100 complete kill
Description: as §1

ORYSA 2-leaf stage = experiment: Assay for herbicidal activity on the 2-leaf stage weeds and rice plants: rice 2-leaf stage; format: in vivo, Oryza sativa L.; details: applied at 2-leaf stage, 0 untreated control, 100 complete kill
Procedure: as §2, §3, §4

Cc1ccsc1C1=NOC(C)(COCc2c(F)cccc2F)C1 (stereo not shown) [EXAMPLE 8, 5-(2,6-difluorobenzyl)oxymethyl-5-methyl-3-(4-methylthiophene-5-yl)-1,2-isoxazoline]
MOOVA (seed) herbicidal activity, visual percentage grading (MOOVA (seed); 0.016 kg/ha): 50% | MOOVA (seed) herbicidal activity, visual percentage grading (MOOVA (seed); 0.063 kg/ha): 90% | MOOVA (seed) herbicidal activity, visual percentage grading (MOOVA (seed); 0.250 kg/ha): 90% | MOOVA (seed) herbicidal activity, visual percentage grading (MOOVA (seed); 1.000 kg/ha): 100% | MOOVA (seed) herbicidal activity, visual percentage grading (MOOVA (seed); 4.000 kg/ha): 100% | ECHOR (seed) herbicidal activity, visual percentage grading (ECHOR (seed); 0.016 kg/ha): 50% | ECHOR (seed) herbicidal activity, visual percentage grading (ECHOR (seed); 0.063 kg/ha): 100% | ECHOR (seed) herbicidal activity, visual percentage grading (ECHOR (seed); 0.250 kg/ha): 100% | ECHOR (seed) herbicidal activity, visual percentage grading (ECHOR (seed); 1.000 kg/ha): 100% | ECHOR (seed) herbicidal activity, visual percentage grading (ECHOR (seed); 4.000 kg/ha): 100% | SCPJU (seed) herbicidal activity, visual percentage grading (SCPJU (seed); 0.016 kg/ha): 0% | SCPJU (seed) herbicidal activity, visual percentage grading (SCPJU (seed); 0.063 kg/ha): 10% | SCPJU (seed) herbicidal activity, visual percentage grading (SCPJU (seed); 0.250 kg/ha): 10% | SCPJU (seed) herbicidal activity, visual percentage grading (SCPJU (seed); 1.000 kg/ha): 40% | SCPJU (seed) herbicidal activity, visual percentage grading (SCPJU (seed); 4.000 kg/ha): 100% | ORYSA (seed) phytotoxicity, visual percentage grading (ORYSA seed; 0.016 kg/ha): 0% | ORYSA (seed) phytotoxicity, visual percentage grading (ORYSA seed; 0.063 kg/ha): 20% | ORYSA (seed) phytotoxicity, visual percentage grading (ORYSA seed; 0.250 kg/ha): 55% | ORYSA (seed) phytotoxicity, visual percentage grading (ORYSA seed; 1.000 kg/ha): 80% | ORYSA (seed) phytotoxicity, visual percentage grading (ORYSA seed; 4.000 kg/ha): 95% | SAGPY (tuber) herbicidal activity, visual percentage grading (SAGPY (tuber); 0.016 kg/ha): 0% | SAGPY (tuber) herbicidal activity, visual percentage grading (SAGPY (tuber); 0.063 kg/ha): 0% | SAGPY (tuber) herbicidal activity, visual percentage grading (SAGPY (tuber); 0.250 kg/ha): 0% | SAGPY (tuber) herbicidal activity, visual percentage grading (SAGPY (tuber); 1.000 kg/ha): 50% | SAGPY (tuber) herbicidal activity, visual percentage grading (SAGPY (tuber); 4.000 kg/ha): 80% | ECHOR 2-leaf stage herbicidal activity, visual percentage grading (ECHOR 2-leaf stage; 0.016 kg/ha): 45% | ECHOR 2-leaf stage herbicidal activity, visual percentage grading (ECHOR 2-leaf stage; 0.063 kg/ha): 95% | ECHOR 2-leaf stage herbicidal activity, visual percentage grading (ECHOR 2-leaf stage; 0.250 kg/ha): 100% | ECHOR 2-leaf stage herbicidal activity, visual percentage grading (ECHOR 2-leaf stage; 1.000 kg/ha): 100% | ECHOR 2-leaf stage herbicidal activity, visual percentage grading (ECHOR 2-leaf stage; 4.000 kg/ha): 100% | CYPSE (tuber) herbicidal activity, visual percentage grading (CYPSE (tuber); 0.016 kg/ha): 0% | CYPSE (tuber) herbicidal activity, visual percentage grading (CYPSE (tuber); 0.063 kg/ha): 50% | CYPSE (tuber) herbicidal activity, visual percentage grading (CYPSE (tuber); 0.250 kg/ha): 90% | CYPSE (tuber) herbicidal activity, visual percentage grading (CYPSE (tuber); 1.000 kg/ha): 100% | CYPSE (tuber) herbicidal activity, visual percentage grading (CYPSE (tuber); 4.000 kg/ha): 100% | ORYSA 2-leaf stage phytotoxicity, visual percentage grading (ORYSA 2-leaf stage; 0.016 kg/ha): 0% | ORYSA 2-leaf stage phytotoxicity, visual percentage grading (ORYSA 2-leaf stage; 0.063 kg/ha): 0% | ORYSA 2-leaf stage phytotoxicity, visual percentage grading (ORYSA 2-leaf stage; 0.250 kg/ha): 0% | ORYSA 2-leaf stage phytotoxicity, visual percentage grading (ORYSA 2-leaf stage; 1.000 kg/ha): 20% | ORYSA 2-leaf stage phytotoxicity, visual percentage grading (ORYSA 2-leaf stage; 4.000 kg/ha): 65%
